Measured values published in publication PMC9511481 (Journal of Medicinal Chemistry, 2022).
“And” between values parts separate entries of the source, which are not always exact repeats. Identical values can stand only once. Counter-ions that a name gives are not always drawn. Like-named read-outs stand apart in the source and are kept apart here.

Key:
5-HT2AR [1] = molecular target: T1, 5-HT2AR (Homo sapiens, UniProt P28223); assay: cell-based; type: cell-based; details: for Emax: HEK-293T, read-out: β-arr2 Emax (%) [CI]
T1 construct: expressed in transfected cells; host or cells: HEK 293T (transient transfection)
Target sequence in this assay (P32121 whole entry): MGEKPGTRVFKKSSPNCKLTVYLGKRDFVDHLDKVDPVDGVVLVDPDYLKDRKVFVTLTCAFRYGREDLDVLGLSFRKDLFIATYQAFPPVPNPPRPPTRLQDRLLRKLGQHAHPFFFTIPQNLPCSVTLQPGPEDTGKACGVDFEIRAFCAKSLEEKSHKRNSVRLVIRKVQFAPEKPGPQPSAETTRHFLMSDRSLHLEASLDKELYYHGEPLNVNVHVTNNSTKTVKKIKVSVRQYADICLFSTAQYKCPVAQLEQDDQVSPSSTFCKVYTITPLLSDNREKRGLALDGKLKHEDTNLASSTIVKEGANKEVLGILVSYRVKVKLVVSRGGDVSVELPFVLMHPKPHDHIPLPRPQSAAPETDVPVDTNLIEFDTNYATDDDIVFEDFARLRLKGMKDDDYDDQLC
Target sequence in this assay (P28223 whole entry): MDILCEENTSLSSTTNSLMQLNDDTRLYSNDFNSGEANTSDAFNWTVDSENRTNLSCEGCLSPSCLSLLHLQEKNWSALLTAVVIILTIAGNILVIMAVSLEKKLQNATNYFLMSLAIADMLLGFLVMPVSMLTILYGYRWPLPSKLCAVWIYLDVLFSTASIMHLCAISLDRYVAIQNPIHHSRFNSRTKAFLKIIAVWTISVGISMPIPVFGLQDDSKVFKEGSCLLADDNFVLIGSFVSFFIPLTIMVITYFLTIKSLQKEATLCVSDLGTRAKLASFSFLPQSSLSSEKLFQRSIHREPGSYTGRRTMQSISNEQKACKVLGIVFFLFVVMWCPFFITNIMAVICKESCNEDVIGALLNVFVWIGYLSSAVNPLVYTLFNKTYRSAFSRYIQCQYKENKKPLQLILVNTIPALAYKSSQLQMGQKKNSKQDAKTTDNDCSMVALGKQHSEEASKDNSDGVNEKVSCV

5-HT2AR [2] = molecular target: T1, 5-HT2AR; assay: cell-based; type: cell-based
Target sequence in this assay (P28223 whole entry): as above

[3] = molecular target: T2, 5-HT2AR S159A-mutated receptor (Homo sapiens, UniProt P28223, S159A); assay: cell-based; type: cell-based; details: for EC50: read-out: β-arr2 EC50 (nM) [CI]
T2 construct: expressed in transfected cells; host or cells: HEK 293T (transient transfection); mutant made by site-directed mutagenesis of 5-HT2AR-LgBiT
Target sequence in this assay (P28223 whole entry S159A): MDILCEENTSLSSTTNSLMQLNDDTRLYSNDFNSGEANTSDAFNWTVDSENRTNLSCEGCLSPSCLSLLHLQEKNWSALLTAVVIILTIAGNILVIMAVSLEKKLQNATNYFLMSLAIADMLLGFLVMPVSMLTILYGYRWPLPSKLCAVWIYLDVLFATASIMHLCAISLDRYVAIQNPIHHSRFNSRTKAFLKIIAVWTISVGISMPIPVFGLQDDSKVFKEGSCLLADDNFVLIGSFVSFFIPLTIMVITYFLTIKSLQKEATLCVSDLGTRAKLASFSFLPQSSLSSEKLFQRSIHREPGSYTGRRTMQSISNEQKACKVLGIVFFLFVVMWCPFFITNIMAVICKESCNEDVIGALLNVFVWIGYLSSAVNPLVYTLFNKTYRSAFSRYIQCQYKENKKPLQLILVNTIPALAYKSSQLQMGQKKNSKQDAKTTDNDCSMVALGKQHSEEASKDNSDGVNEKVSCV
Target sequence in this assay (P32121 whole entry partner): as the sequence (P32121 whole entry) above

[4] = molecular target: T2, 5-HT2AR S159A-mutated receptor; assay: cell-based; type: cell-based; details: for Emax: read-out: miniGαq Emax (%) [CI]
Target sequence in this assay (P28223 whole entry S159A): as the sequence (P28223 whole entry S159A) above

[5] = system: 5-HT2AR S159A-mutated receptor; assay: cell-based; type: cell-based, human
5-HT2AR [6] = molecular target: T1, 5-HT2AR; type: cell-based
Target sequence in this assay (P28223 whole entry): as the sequence (P28223 whole entry) above

[7] = system: 5-HT2AR S159A-mutated receptor; assay: Bias factor (βarr2 vs miniGαq recruitment), intrinsic relative activity approach, S159A mutated 5-HT2AR; type: cell-based, human; details: 5-HT2A-S159A; for Alternative β-factor: from the combined EC50 and Emax values; for β-factor: average of three experiments
Description: The resulting data were analyzed as described before in more detail.[55] In brief, the obtained time–luminescence profiles are corrected for interwell variability and used for the calculation of the area under the curve (AUC), from which the AUC of the corresponding solvent control is subtracted. Data are then normalized using GraphPad Prism software (San Diego, CA), where the maximal response of the reference agonist is arbitrarily set at 100%. After pooling the data of the individual experiments, the potency and efficacy values are calculated in GraphPad Prism through three parametric nonlinear regression analysis. To quantify the tendency of the measured substances toward preferentially inducing one pathway or the other, bias factors are calculated via the “intrinsic relative activity approach.[56],[57] In this approach, an RAi value is calculated for each substance in each of the measured assays, relative to a reference agonist, using the following formula [drawing 1] The obtained values for the respective pathways are then combined into a bias factor, βi [drawing 2] This formula implies that the value of βi for the reference agonist is 0. A positive bias factor indicates a preference toward the recruitment of βarr2 over miniGαq, compared to the respective reference agonist. A negative bias factor then points to a relative preference toward the recruitment of miniGαq over βarr2. To assess whether the obtained bias factors are statistically significant from 0, a Kruskal–Wallis analysis (which is the nonparametric counterpart of one-way analysis of variance (ANOVA), selected a priori to avoid presumptuous conclusions) with post hoc Dunn’s multiple comparison was carried out in GraphPad Prism. To qualitatively visualize the possible preference of a certain substance towards recruiting either one cytosolic protein or the other, bias plots were generated via GraphPad Prism. To this end, the normalized AUC values obtained in the βarr2 assay are plotted on the x-axis, and those obtained in the miniGαq assay are plotted on the y-axis. On each plot, both the respective reference agonist and one substance of interest are plotted, and a curve is fitted through the centered second-order (quadratic) polynomial fitting.[58]

5-HT2AR [8] = details: 5-HT2AR S159A vs WT; ref 52 (Kim et al.); cited from earlier work
5-HT2AR [9] = molecular target: T1, 5-HT2AR; parameters: method as in PMID 32998000; details: wild-type 5-HT2AR; previously reported values; cited from earlier work
Target sequence in this assay (P32121 whole entry): as the sequence (P32121 whole entry) above
Target sequence in this assay (P28223 whole entry): as the sequence (P28223 whole entry) above

5-HT2AR [10] = molecular target: T1, 5-HT2AR; parameters: method as in PMID 32998000; details: wild-type 5-HT2AR; previously reported values; cited from earlier work; remark: listed apart in the source
Target sequence in this assay (P28223 whole entry): as above

5-HT2AR over 5-HT2CR = details: cited from earlier work
5-HT2AR [11] = system: 5-HT2AR; parameters: method as in PMID 35084960; details: partial agonist with bias toward βarr2 over Gαq-γ9, reference 5-HT; cited from earlier work
[12] = read-out: miniGαq EC50 (nM) [CI]
[13] = read-out: β-arr2 EC50 (nM) [CI]

Compound | β-arr2 Emax (%) [CI] (5-HT2AR [1]) | Emax (5-HT2AR [1]) | EC50 (5-HT2AR [2]; [12]) | EC50 (5-HT2AR [1]; [13]) | Reduction of agonist potency at 5-HT2AR S159A compared to WT, βarr2 recruitment assay [3] | β-arr2 Emax (%) [CI] [3] | EC50 [3] | EC50 [4, 12] | Reduction of agonist potency at 5-HT2AR S159A compared to WT, miniGαq recruitment assay [5] | Alternative β-factor ([7]; referenced with 5-HT) | Alternative β-factor ([7]; referenced with LSD) | also measured
COc1cc(CCNC2COc3ccccc32)c(OC)cc1Br (racemic) [(±)-4c, (±)-N-(4-Bromo-2,5-dimethoxyphenethyl)-2,3-dihydrobenzofuran-3-amine Hydrochloride] | 85.5% | 96.6% | 23 nM | – | – | – | – | – | – | – | – | EC50 (5-HT2AR [1]; β-arr2 EC50 (nM) [CI]): 28.6 nM and 28.7 nM; EC50 (5-HT2AR [2]): 24.5 nM
COc1cc(CCNC2CCOc3ccccc32)c(OC)cc1Br (racemic) [(±)-4d, (±)-N-(4-Bromo-2,5-dimethoxyphenethyl)chroman-4-amine Hydrochloride] | 108% | 121% | 174 nM and 168 nM | 132 nM and 134 nM | – | – | – | – | – | – | – | –
COc1cc(CCNC2COc3ccccc32)c(OC)cc1C#N (racemic) [(±)-6f, (±)-4-(2-((2,3-Dihydrobenzofuran-3-yl)amino)ethyl)-2,5-dimethoxybenzonitrile Hydrochloride] | 76.0% | 82.9% | 631 nM and 608 nM | 108 nM | ~10 fold | 90.8 [81.9–101] % and 118% | 1020 nM and 1030 nM | 1650 nM | 2.6 fold | 0.486 | 1.010 | Alternative β-factor (5-HT2AR [6]): 1.420 and 0.711; Bias judged from the bias plot, relative to LSD (5-HT2AR [6]): highly biased for βarr2 recruitment; Bias judged from the bias plot, relative to serotonin (5-HT2AR [6]): strong preference toward βarr2 recruitment; Difference in potency between the β-arr2 and miniGαq assays (5-HT2AR [6]): 6 fold
COc1cc(CCNCc2cccc(O)c2)c(OC)cc1Br [4a, 3-(((4-Bromo-2,5-dimethoxyphenethyl)amino)methyl)phenol Hydrochloride] | 98.9% | 112% | 48.8 nM and 46.9 nM | 11.1 nM | approximately 15 fold | 89.8 [75.8–108] % and 110% | 172 nM and 175 nM | 154 nM and 156 nM | ~3 fold | 0.096 | 0.566 | miniGαq Emax (%) [CI] [4]: 36.8%; Emax [4]: 21%
COc1cccc(CNCCc2cc(OC)c(Br)cc2OC)c1 [4b, 2-(4-Bromo-2,5-dimethoxyphenyl)-N-(3-methoxybenzyl)ethan-1-amine Hydrochloride] | 100% | 113% | 44.4 nM and 43.3 nM | 11.1 nM | 7 fold | 106 [97.5–114] % and 130% | 81.9 nM and 80.4 nM | 112 nM | – | 0.043 | 0.494 | EC50 [4]: 118 nM; miniGαq Emax (%) [CI] [4]: 44.7 [36.9–53.9] % and 81.0%; β-factor ([7]; relative to LSD): 0.565; β-factor ([7]; relative to serotonin (5-HT)): 0.102
NCCc1c[nH]c2ccc(O)cc12 [5-HT, serotonin, reference compound] | – | – | – | – | – | – | – | – | 13 fold | – | – | Drop in efficacy in the S159A-mutated 5-HT2AR, β-arr2 [3]: 33%; Drop in efficacy in the S159A-mutated 5-HT2AR, miniGαq [5]: 173%; β-factor ([7]; relative to LSD): 0.550; β-factor ([7]; relative to serotonin (5-HT)): 0; Change of efficacy with the S159A mutation, Gαq-dissociation BRET assay (5-HT2AR [8]): remained roughly unchanged; Decrease in potency with the S159A mutation, Gαq-dissociation BRET assay (5-HT2AR [8]): 157 fold
COc1cc(CCNCc2ccccc2OC)c(OC)cc1C#N [6b, 2,5-Dimethoxy-4-(2-((2-methoxybenzyl)amino)ethyl)benzonitrile Hydrochloride] | 148% | 161% | 6.7 nM and 6.71 nM and 6.53 nM | 1.9 nM and 1.93 nM and 1.94 nM | – | – | – | – | – | – | – | –
COc1cc(CCNCc2ccccc2F)c(OC)cc1C#N [6c, 4-(2-((2-Fluorobenzyl)amino)ethyl)-2,5-dimethoxybenzonitrile Hydrochloride] | 105% | 114% | 168 nM and 164 nM | 53.2 nM and 53.3 nM | 12 fold | 86.6 [81.5–92.0] % and 113% | 661 nM and 645 nM | 1130 nM | 7 fold | 0.237 | 0.842 | EC50 [4]: 899 nM; β-factor ([7]; relative to LSD): 0.731; β-factor ([7]; relative to serotonin (5-HT)): 0.186
COc1cc(CCNCc2cccc3c2OCO3)c(OC)cc1C#N [6d, 4-(2-((Benzo[d][1,3]dioxol-4-ylmethyl)amino)ethyl)-2,5-dimethoxybenzonitrile Hydrochloride] | 106% | 114% | 45.1 nM and 47.3 nM | 17 nM and 17.1 nM | – | – | – | – | – | – | – | –
COc1cc(CCNCc2cccc(O)c2)c(OC)cc1C#N [6e, 4-(2-((3-Hydroxybenzyl)amino)ethyl)-2,5-dimethoxybenzonitrile Hydrochloride] | 97.5% | 106% | 301 nM and 299 nM | 84.5 nM | ~10 fold | 84.1% | 939 nM and 938 nM | 2060 nM | 6.9 fold | 0.577 | 1.050 | Emax ([3]; read-out: β-arr2 Emax (%) [CI]): 68.2%; miniGαq Emax (%) [CI] [4]: 22.9%; Emax [4]: 12.9%
COc1cc(CCNCc2ccccc2O)c(OC)cc1I [25I-NBOH] | – | – | – | – | – | – | – | – | – | – | – | Emax, βarr2 assay (5-HT2AR [9]): 135–141%; Emax, miniGαq assay (5-HT2AR [10]): 111–160%
COc1cc(CCNCc2ccccc2OC)c(OC)cc1I [25I-NBOMe] | – | – | – | – | – | – | – | – | – | – | – | Emax, βarr2 assay (5-HT2AR [9]): 135–141%; Emax, miniGαq assay (5-HT2AR [10]): 111–160%
COc1cc(CC2CCCC(c3ccccc3OC)N2)c(OC)cc1Br [(S,S)-DMBMPP] | – | – | – | – | – | – | – | – | – | – | – | Selectivity over 5-HT2CR (5-HT2AR over 5-HT2CR): 124 fold
COc1ccccc1CCCN1CC[C@H]2[C@@H](C1)c1cccc3c1N2CCN3C [IHCH-7086] | – | – | – | – | – | – | – | – | – | – | – | Emax (5-HT2AR [11]): 13%
CCN(CC)C(=O)[C@@H]1C=C2c3cccc4[nH]cc(c34)C[C@H]2N(C)C1 [LSD, lysergic acid diethylamide, reference compound] | 90.7% | 99.7% | – | – | – | 99.9 [93.7–106] % and 128% | – | – | – | – | – | β-factor ([7]; relative to LSD): 0; β-factor ([7]; relative to serotonin (5-HT)): -0.533
